Data on ten compounds can be found in ChEMBL document CHEMBL1909046, “DrugMatrix in vitro pharmacology data”.

A short description of experiment [1]: DRUGMATRIX: Platelet-Derived Growth Factor (PDGF) radioligand binding (ligand: [125I] PDGF). The settings on record: nih3t3; Not Active = under 50% inhibition at 10 µM. The class given is cell-based.
In experiment [2] the target is Matrix metalloproteinase-9 (Homo sapiens, UniProt P14780). The class given is cell-based.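 Further: inhibition of isolated MMP-9 enzyme activity toward a synthetic peptide substrate, from the DrugMatrix protease screening panel; in other assays of this panel Not Active means under 50% inhibition at 10 µM.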
The nature of experiment [3]: DRUGMATRIX: Calcium Channel Type L, Phenylalkylamine radioligand binding (ligand: [3H] (-)-Desmethoxyverapamil (D-888)). The format is cell membranes, Rattus norvegicus, Wistar, Brain, Membrane. The settings on record: Not Active = under 50% inhibition at 10 µM.
Experiment [4] in a line: DRUGMATRIX: GABAA, Muscimol, Central radioligand binding (ligand: [3H] Muscimol). The format is cell membranes, Rattus norvegicus, Wistar, Brain, Membrane. The settings on record: Not Active = under 50% inhibition at 10 µM.
Experiment [5] has as its target T1, Calcitonin receptor (Homo sapiens, UniProt P30988). Further: in other assays of this panel Not Active means under 50% inhibition at 10 µM.
T1 sequence (P30988 whole entry): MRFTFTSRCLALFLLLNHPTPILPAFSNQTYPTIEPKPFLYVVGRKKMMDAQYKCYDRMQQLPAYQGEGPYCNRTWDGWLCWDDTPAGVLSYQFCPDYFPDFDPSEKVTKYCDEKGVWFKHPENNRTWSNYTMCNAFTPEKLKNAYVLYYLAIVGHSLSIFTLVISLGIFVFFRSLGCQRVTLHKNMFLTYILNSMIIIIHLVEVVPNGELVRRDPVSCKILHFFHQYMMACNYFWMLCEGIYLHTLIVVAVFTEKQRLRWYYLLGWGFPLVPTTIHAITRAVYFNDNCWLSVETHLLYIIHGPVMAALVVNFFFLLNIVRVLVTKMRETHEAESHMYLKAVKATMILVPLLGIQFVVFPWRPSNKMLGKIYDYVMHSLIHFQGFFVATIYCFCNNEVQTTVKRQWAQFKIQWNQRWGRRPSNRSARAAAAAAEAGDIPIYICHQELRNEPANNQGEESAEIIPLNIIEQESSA
The format is cell membranes, Membrane. The following applies: t47d.

In experiment [6] the target is Sodium-dependent dopamine transporter (Homo sapiens, UniProt Q01959). As to the kind of experiment: DRUGMATRIX: Dopamine Transporter radioligand binding (ligand: [125I] RTI-55). The class given is cell membranes, CHO-K1, Membrane. The settings on record: Not Active = under 50% inhibition at 10 µM.
For experiment [7], the target named is 5-hydroxytryptamine receptor 1B (Rattus norvegicus, UniProt P28564). The format is cell membranes, Wistar, Cerebral cortex, Membrane. The following applies: for Ki: read-out: Ki. On all read-outs here: in other assays of this panel Not Active means under 50% inhibition at 10 µM.

One may read the IC50 as the point on the concentration scale where inhibition reaches its midpoint. What is called Ki is the equilibrium dissociation constant of an inhibitor or competing ligand from its target.

Sequence of Matrix metalloproteinase-9 (P14780 whole entry): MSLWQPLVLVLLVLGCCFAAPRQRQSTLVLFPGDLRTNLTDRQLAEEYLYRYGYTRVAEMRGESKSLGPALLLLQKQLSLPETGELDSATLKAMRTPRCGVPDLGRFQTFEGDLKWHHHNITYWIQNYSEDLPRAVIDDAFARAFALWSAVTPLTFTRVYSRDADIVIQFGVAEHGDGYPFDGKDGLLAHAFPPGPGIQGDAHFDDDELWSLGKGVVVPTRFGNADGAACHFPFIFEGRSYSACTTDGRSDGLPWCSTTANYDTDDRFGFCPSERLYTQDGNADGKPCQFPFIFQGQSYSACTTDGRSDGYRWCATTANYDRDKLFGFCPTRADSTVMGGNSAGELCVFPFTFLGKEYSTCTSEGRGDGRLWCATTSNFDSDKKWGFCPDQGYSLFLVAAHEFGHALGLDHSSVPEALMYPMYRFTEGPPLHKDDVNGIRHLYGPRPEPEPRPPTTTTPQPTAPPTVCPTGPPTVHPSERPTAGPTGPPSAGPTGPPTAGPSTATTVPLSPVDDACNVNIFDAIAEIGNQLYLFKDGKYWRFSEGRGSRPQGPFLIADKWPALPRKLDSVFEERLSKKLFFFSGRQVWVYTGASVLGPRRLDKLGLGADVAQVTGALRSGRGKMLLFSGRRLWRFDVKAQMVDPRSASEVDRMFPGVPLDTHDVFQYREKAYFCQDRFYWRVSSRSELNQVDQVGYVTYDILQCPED
Sequence of Sodium-dependent dopamine transporter (Q01959 whole entry): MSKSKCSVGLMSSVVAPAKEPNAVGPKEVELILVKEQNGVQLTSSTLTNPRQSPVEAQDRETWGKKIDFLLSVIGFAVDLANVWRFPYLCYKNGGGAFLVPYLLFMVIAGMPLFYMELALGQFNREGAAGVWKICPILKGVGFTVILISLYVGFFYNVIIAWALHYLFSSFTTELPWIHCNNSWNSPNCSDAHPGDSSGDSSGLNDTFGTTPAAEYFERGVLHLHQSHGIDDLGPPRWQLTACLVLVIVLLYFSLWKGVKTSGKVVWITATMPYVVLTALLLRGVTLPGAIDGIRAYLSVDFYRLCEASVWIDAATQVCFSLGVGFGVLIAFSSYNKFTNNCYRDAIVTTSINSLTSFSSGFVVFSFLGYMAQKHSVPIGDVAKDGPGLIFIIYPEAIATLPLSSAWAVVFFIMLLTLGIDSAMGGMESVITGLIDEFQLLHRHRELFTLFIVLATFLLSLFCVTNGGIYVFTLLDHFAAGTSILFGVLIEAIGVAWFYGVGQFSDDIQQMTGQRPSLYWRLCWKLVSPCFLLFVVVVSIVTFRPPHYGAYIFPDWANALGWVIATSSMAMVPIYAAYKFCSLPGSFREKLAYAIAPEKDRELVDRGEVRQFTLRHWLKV
Sequence of 5-hydroxytryptamine receptor 1B (P28564 whole entry): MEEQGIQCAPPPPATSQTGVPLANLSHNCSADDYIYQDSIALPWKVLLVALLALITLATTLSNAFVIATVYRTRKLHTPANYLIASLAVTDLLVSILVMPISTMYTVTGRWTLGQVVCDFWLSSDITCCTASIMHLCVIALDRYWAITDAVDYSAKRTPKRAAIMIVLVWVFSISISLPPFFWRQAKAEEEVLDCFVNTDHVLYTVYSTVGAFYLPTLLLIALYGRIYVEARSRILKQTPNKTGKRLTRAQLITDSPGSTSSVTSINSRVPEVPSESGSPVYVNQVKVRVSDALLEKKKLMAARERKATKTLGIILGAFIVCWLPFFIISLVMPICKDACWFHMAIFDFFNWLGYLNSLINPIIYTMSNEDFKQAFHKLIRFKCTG

Consider `C#C[C@]1(O)CC[C@H]2[C@@H]3[C@H](C)CC4=C(CCC(=O)C4)[C@H]3CC[C@@]21C` [TIBOLONE], for which the IC50 entry in experiment [1], in experiment [2], in experiment [3], in experiment [4], in experiment [5] and in experiment [6] (cho-k1) was “Not Active” in each case. In addition, in experiment [7], the IC50 result is recorded as “Not Active”. Further, the Ki entry in experiment [1], in experiment [3] and in experiment [4] was “Not Active” each time.

As to `C[C@]12CCC(=O)C[C@@H]1CC[C@@H]1[C@@H]2CC[C@]2(C)[C@@H](O)CC[C@@H]12` [STANOLONE], the IC50 result in experiment [1], in experiment [2], in experiment [3], in experiment [4], in experiment [5] and in experiment [6] (cho-k1) was “Not Active” in each case. Also, the IC50 result in experiment [7] is on record as “Not Active”. The Ki result in experiment [1], in experiment [3] and in experiment [4] was “Not Active” throughout.

As to `CC(C)(C)NC[C@H](O)COc1cccc2c1CCCC2=O` [LEVOBUNOLOL], the IC50 entry in experiment [1], in experiment [2], in experiment [3], in experiment [4], in experiment [5] and in experiment [6] (cho-k1) was “Not Active” in each case. In addition, the IC50 result in experiment [7] was “Not Active”. Also, the Ki result in experiment [1], in experiment [3] and in experiment [4] was “Not Active” in each case.

Regarding `CCN1CCCC1CNC(=O)c1cc(S(N)(=O)=O)ccc1OC` (stereo not drawn) [SULPIRIDE], the IC50 entry in experiment [1], in experiment [2], in experiment [3], in experiment [4], in experiment [5] and in experiment [6] (cho-k1) was “Not Active” throughout. The IC50 entry in experiment [7] is “Not Active”. Further, the Ki result in experiment [1], in experiment [3] and in experiment [4] was “Not Active” in each case.

For the compound `CCN(CC)C(=S)SSC(=S)N(CC)CC`, the IC50 entry in experiment [1] is “Not Active”; in experiment [2] it was “Not Active”; in experiment [3], “Not Active”; in experiment [4], “Not Active”; in experiment [5], “Not Active”; in experiment [6] (read-out: IC50), 4640 nM. The IC50 in experiment [7] (read-out: IC50) came out at 4720 nM. For the same compound, the Ki result was “Not Active” in experiment [1]; “Not Active” in experiment [3]; “Not Active” in experiment [4]; 3680 nM in experiment [6] (read-out: Ki); 2150 nM in experiment [7].

In the case of `OC[C@@H](O)[C@@H](O)[C@H](O)[C@H](O)CO` [MANNITOL], the half-maximal inhibitory concentration (IC50) entry in experiment [1], in experiment [2], in experiment [3], in experiment [4], in experiment [5] and in experiment [6] (cho-k1) was “Not Active” in each case. For the same compound, in experiment [7], the IC50 result is “Not Active”. Further, the Ki result in experiment [1], in experiment [3] and in experiment [4] was “Not Active” each time.

On to `CNCCCC12CCC(c3ccccc31)c1ccccc12` [MAPROTILINE], for which the IC50 result in experiment [2], in experiment [5] and in experiment [7] was “Not Active” in each case.

As to `CN(C)CCC=C1c2ccccc2COc2ccccc21` [DOXEPIN], the IC50 result in experiment [2], in experiment [5] and in experiment [7] was “Not Active” each time.

For the compound `CN1C[C@H](CNC(=O)OCc2ccccc2)C[C@@H]2c3cccc4c3c(cn4C)C[C@H]21` [METERGOLINE], the IC50 entry was “Not Active” in experiment [1]; “Not Active” in experiment [2]; 278 nM in experiment [3] (read-out: IC50); “Not Active” in experiment [4]; “Not Active” in experiment [5]; 19 nM in experiment [7] (read-out: IC50). In addition, the Ki result in experiment [1] was “Not Active”; in experiment [3] (read-out: Ki) it was 270 nM; in experiment [4], “Not Active”; in experiment [7] it was 11 nM.

`Cc1cc2c(s1)Nc1ccccc1N=C2N1CCN(C)CC1` [OLANZAPINE]: the IC50 result in experiment [2] is “Not Active”; in experiment [5] it was “Not Active”; in experiment [6] (cho-k1), “Not Active”; in experiment [7] (read-out: IC50), 707 nM. In addition, the Ki in experiment [7] came to 433 nM.
